PubChem BioAssay (NCI)
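Briefly, cells in 96-well plates were exposed to five compound concentrations for 48 h, and endpoints were estimated by linear interpolation. GI50 is the concentration that inhibits growth by half. TGI is the concentration that stops growth completely.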

How the values were obtained:
Experiment in all cases: DTP human tumour cell line panel, 48 h
[1] = system: SK-OV-3 ovarian
[2] = system: OVCAR-5 ovarian
[3] = system: OVCAR-4 ovarian
[4] = system: SR leukemia
[5] = system: CCRF-CEM leukemia
[6] = system: SK-MEL-5 melanoma
[7] = system: TK-10 renal
[8] = system: MDA-MB-231 breast
[9] = system: NCI/ADR-RES ovarian
[10] = system: UACC-62 melanoma

In the case of CNC(=O)c1ccc(N2CCN(Cc3ccc4nc(C)c(=O)[nH]c4c3F)CC2)c(F)n1, the GI50 [1] is reported as > 100 µM, the TGI [1] is reported as > 100 µM and the GI50 [2] is reported as > 100 µM. For the same molecule, the TGI [2] was > 100 µM, the GI50 [3] was > 100 µM and the TGI [3] was > 100 µM. For the same molecule, the GI50 [4] was 63.1 µM, the TGI [4] was > 100 µM and the GI50 [5] was > 100 µM. For the same molecule, the TGI [5] was > 100 µM, the GI50 [6] was 30.5 µM and the TGI [6] was > 100 µM. The GI50 [7] was 72.3 µM, the TGI [7] was > 100 µM and the GI50 [8] was 39.5 µM. The TGI [8] was > 100 µM, the GI50 [9] was 78.8 µM and the TGI [9] was > 100 µM.

C#CCOc1cccc(-c2ncnc3cc(NC(=O)CCl)ccc23)c1 was tested, and the GI50 [1] was 2.22 µM, the TGI [1] was 7.38 µM and the GI50 [2] was 1.19 µM. It also gave a TGI [2] of 2.86 µM, a GI50 [3] of 1.2 µM and a TGI [3] of 2.59 µM. For the same molecule, the GI50 [4] was 0.0363 µM, the TGI [4] was > 100 µM and the GI50 [5] was 0.0249 µM. It also gave a GI50 [10] of 0.481 µM, a TGI [10] of 3.07 µM and a GI50 [6] of 0.684 µM. The TGI [6] was 2.19 µM, the GI50 [7] was 1.26 µM and the TGI [7] was 2.81 µM. For the same molecule, the GI50 [8] was 0.481 µM, the TGI [8] was 4.57 µM and the GI50 [9] was 1.05 µM. For the same molecule, the TGI [9] was 14.9 µM.

CCCC(=O)NC1=C(Cl)C(=O)c2ccccc2C1=O showed a TGI [1] of 27.1 µM, a TGI [2] of 15.4 µM and a TGI [3] of 17.1 µM. For the same molecule, the TGI [4] was 6.31 µM, the TGI [5] was > 100 µM and the TGI [10] was 10.3 µM. For the same molecule, the TGI [6] was 6.85 µM, the TGI [7] was 15.6 µM and the TGI [8] was 17.4 µM. For the same molecule, the TGI [9] was > 23.2 µM.

C=C1C(=O)O[C@H]2C[C@@H]1CC/C(C)=C/CC/C(C)=C/CC[C@H]2C showed a GI50 [1] of 19.2 µM, a TGI [1] of 38.9 µM and a GI50 [2] of 17.2 µM. The TGI [2] was 34.6 µM, the GI50 [4] was 7.14 µM and the TGI [4] was 15.2 µM. It also gave a GI50 [5] of 18.8 µM, a TGI [5] of 48.5 µM and a GI50 [10] of 19.3 µM. It also gave a TGI [10] of 34.6 µM, a GI50 [6] of 17.3 µM and a TGI [6] of 32.2 µM. The GI50 [7] was 20 µM, the TGI [7] was 37.7 µM and the GI50 [8] was 18.9 µM. The TGI [8] was 38.9 µM, the GI50 [9] was 7.43 µM and the TGI [9] was 21.5 µM.

C=C(C)C(=O)O[C@H]1C[C@@]23O[C@@H]2CCC(=C[C@H]2OC(=O)C(=C)[C@H]12)COC3O (some centres undefined) was tested, and the TGI [1] was > 100 µM, the TGI [2] was > 100 µM and the TGI [3] was > 100 µM. The TGI [4] was 95.1 µM, the TGI [5] was 50.1 µM and the TGI [10] was > 100 µM. For the same molecule, the TGI [6] was > 100 µM, the TGI [7] was > 100 µM and the TGI [8] was > 100 µM. The TGI [9] was > 100 µM.

With [Cl][Hg][Cl] the GI50 [1] was 20.2 µM, the TGI [1] was 34.5 µM and the GI50 [2] was 19.3 µM. For the same molecule, the TGI [2] was 33.6 µM, the GI50 [3] was 16.9 µM and the TGI [3] was 35 µM. It also gave a GI50 [4] of 1.72 µM, a GI50 [5] of 1.83 µM and a TGI [5] of 7.38 µM. For the same molecule, the GI50 [10] was 13.2 µM, the TGI [10] was 27.3 µM and the GI50 [6] was 15.4 µM. The TGI [6] was 30.5 µM, the GI50 [7] was 17.5 µM and the TGI [7] was 31.5 µM. It also gave a GI50 [8] of 17.1 µM, a TGI [8] of 31.7 µM and a GI50 [9] of 28.5 µM. For the same molecule, the TGI [9] was 79.6 µM.

Molecule O=C(CO[N+](=O)[O-])Nc1ccc(C(=O)/C=C/c2ccc(Cl)cc2)cc1 has a GI50 [1] of 10.1 µM, a TGI [1] of 65.9 µM and a GI50 [2] of 14.8 µM. For the same molecule, the TGI [2] was 36 µM, the GI50 [3] was 4.06 µM and the TGI [3] was 21 µM. The GI50 [4] was 3.65 µM, the TGI [4] was > 100 µM and the GI50 [5] was 2.73 µM. For the same molecule, the TGI [5] was 16.5 µM, the GI50 [10] was 2.76 µM and the TGI [10] was 11 µM. It also gave a GI50 [6] of 4.23 µM, a TGI [6] of 15.3 µM and a GI50 [7] of 8.37 µM. For the same molecule, the TGI [7] was 25.1 µM, the GI50 [8] was 5.39 µM and the TGI [8] was 21.2 µM. The GI50 [9] was 3.87 µM and the TGI [9] was > 100 µM.
